# Source: PMC7832312, “Enhancing the Physiochemical Properties of Puerarin via L-Proline Co-Crystallization: Synthesis, Characterization, and Dissolution Studies of Two Phases of Pharmaceutical Co-Crystals” (International Journal of Molecular Sciences, 2021)
# Experiments:
# [1] = Dissolution rate measurement (UV, 250 mL medium, 150 RPM, 2 h, 37 °C); type: physicochemical; conditions: for Time-dependent dissolution rate: 37 °C
# Protocol: The solubility and dissolution studies of pure PUE, I, and II were measured using a Thermo Scientific Evolution 300 UV spectrometer in deionized water at pH 7.0, gastrointestinal tract at pH 1.2, and phosphate buffer at pH 6.8 solution at 37 °C. The concentration was calculated utilizing a standard curve, which was made by measuring the absorbance of different concentrations at their λmax. A superfluity sum of the sample was added to 10 mL of H2O medium, pH 1.2 and pH 6.8 phosphate, respectively.
# (§1) The oversaturated solution was stirred at 500 RPM by magnetic stirring at 37 °C for 24 h and the suspension was filtered through Whatman’s […] syringe channel, diluted sufficiently and the absorbance was measured at their λmax. For the dissolution rate, the sample was specifically poured into 250 mL pH 7.0 water, pH 1.2 gastrointestinal tract, and pH 6.8 phosphates medium and then stirred at 150 RPM for 2h at 37 °C. Each solution was measured by the absorbance at λmax. At customary interims, the solution was replenished with 3 mL of the respective blank solution to maintain an overall steady volume.
# CT-26 cancer cell lines = assay: Cytotoxicity evaluation by MTT assay, CT-26; type: cell-based, murine; conditions: CT-26, culturing 24 h
# Protocol: (§2) CT-26 and HEK-293 cell line was purchased from American Type Culture Collection (Manassas, VA, USA). The cell lines were cultured in RPMI 1640 (for CT-26) or DMEM (for HEK-293) containing 10% fetal bovine serum (FBS, Zhejiang Tianhang Biotechnology Co. Ltd., Hangzhou, China) and 1% penicillin/streptomycin (Zhejiang Tianhang Biotechnology Co. Ltd., Hangzhou, China). Cells grew as a monolayer and were detached upon confluence using trypsin (0.5% w/v in PBS, Zhejiang Tianhang Biotechnology Co. Ltd., Hangzhou, China). The cells were harvested from the cell culture medium by incubating in trypsin solution for 3 min. The cells were centrifuged, and the supernatant discarded. A 3 mL portion of serum-supplemented cell culture medium was added to neutralize any residual trypsin. The cells were re-suspended in serum-supplemented RPMI 1640 (for CT-26) or DMEM (for HEK-293) at a concentration of 5 × 10^4 cells per 1 mL. Cells were cultured at 37 °C and 5% CO2 for MTT studies.
# (§3) The CT-26 or HEK-293 cells were seeded at a density of 1 × 10^4 cells per well in 100 µL of complete RPMI 1640 (CT-26) or DMEM (for HEK-293), and cultured for 16 h for attachment. The culture medium was then replaced by a serum-free medium containing various concentrations of pristine PUE, I, and II. […] After incubating the cells at 37 °C for 4 h, the MTT solution was removed and DMSO (100 μL) added to dissolve the formazan crystals formed, and the microplates were agitated for 5 min at a medium rate before the spectrophotometric measurement at a wavelength of 570 nm on a microplate reader. […] The relative cell viability (%) related to control cells was calculated by the formula below: V%=[A]experimental−[A]blank/[A]control−[A]blank×100% where V% is the percentage of cell viability, [A]experimental is the absorbance of the wells culturing the treated cells, [A]blank is the absorbance of the blank, and [A]control is the absorbance of the wells culturing untreated cells.
# HEK-293 cell lines = assay: Cytotoxicity evaluation by MTT assay, HEK-293; type: cell-based, human; conditions: HEK-293, culturing 24 h
# Protocol: as §2, §3
# [2] = Solubility measurement (UV, oversaturated solution stirred 24 h at 37 °C); type: physicochemical; conditions: thermodynamic from solid, average of three replicates
# Protocol: The concentration was calculated utilizing a standard curve, which was made by measuring the absorbance of different concentrations at their λmax. A superfluity sum of the sample was added to 10 mL of H2O medium, pH 1.2 and pH 6.8 phosphate, respectively.
# as §1
# [3] = cited from earlier work
smiles,measurement,setting,value
"CCO.O.O.O=C(O)[C@@H]1CCCN1.O=c1c(-c2ccc(O)cc2)coc2c([C@@H]3O[C@H](CO)[C@@H](O)[C@H](O)[C@H]3O)c(O)ccc12.O=c1c(-c2ccc(O)cc2)coc2c([C@@H]3O[C@H](CO)[C@@H](O)[C@H](O)[C@H]3O)c(O)ccc12 [II, [PUE]2[PRO]∙EtOH∙(H2O)2]",Time-dependent dissolution rate,"[1]; Water, 5 min",0.131 mg/mL
same,Time-dependent dissolution rate,"[1]; Water, 10 min",0.210 mg/mL
same,Time-dependent dissolution rate,"[1]; Water, 15 min",0.281 mg/mL
same,Time-dependent dissolution rate,"[1]; Water, 20 min",0.457 mg/mL
same,Time-dependent dissolution rate,"[1]; Water, 25 min",0.567 mg/mL
same,Time-dependent dissolution rate,"[1]; Water, 30 min",0.701 mg/mL
same,Time-dependent dissolution rate,"[1]; Water, 40 min",1.450 mg/mL
same,Time-dependent dissolution rate,"[1]; Water, 50 min",2.110 mg/mL
same,Time-dependent dissolution rate,"[1]; Water, 60 min",2.490 mg/mL
same,Time-dependent dissolution rate,"[1]; Water, 80 min",2.840 mg/mL
same,Time-dependent dissolution rate,"[1]; Water, 100 min",3.203 mg/mL
same,Time-dependent dissolution rate,"[1]; Water, 120 min",3.410 mg/mL
same,Time-dependent dissolution rate,"[1]; pH 1.2, 5 min",0.171 mg/mL
same,Time-dependent dissolution rate,"[1]; pH 1.2, 10 min",0.240 mg/mL
same,Time-dependent dissolution rate,"[1]; pH 1.2, 15 min",0.337 mg/mL
same,Time-dependent dissolution rate,"[1]; pH 1.2, 20 min",0.417 mg/mL
same,Time-dependent dissolution rate,"[1]; pH 1.2, 25 min",0.479 mg/mL
same,Time-dependent dissolution rate,"[1]; pH 1.2, 30 min",0.534 mg/mL
same,Time-dependent dissolution rate,"[1]; pH 1.2, 40 min",1.005 mg/mL
same,Time-dependent dissolution rate,"[1]; pH 1.2, 50 min",1.342 mg/mL
same,Time-dependent dissolution rate,"[1]; pH 1.2, 60 min",1.489 mg/mL
same,Time-dependent dissolution rate,"[1]; pH 1.2, 80 min",1.683 mg/mL
same,Time-dependent dissolution rate,"[1]; pH 1.2, 100 min",1.923 mg/mL
same,Time-dependent dissolution rate,"[1]; pH 1.2, 120 min",2.005 mg/mL
same,dissolution rate compared with the other forms,"[1]; pH 1.2, pH 6.8, H2O pH 7.0",higher dissolution rate than both I and PUE
same,Time-dependent dissolution rate,"[1]; pH 6.8, 5 min",0.121 mg/mL
same,Time-dependent dissolution rate,"[1]; pH 6.8, 10 min",0.212 mg/mL
same,Time-dependent dissolution rate,"[1]; pH 6.8, 15 min",0.352 mg/mL
same,Time-dependent dissolution rate,"[1]; pH 6.8, 20 min",0.446 mg/mL
same,Time-dependent dissolution rate,"[1]; pH 6.8, 25 min",0.537 mg/mL
same,Time-dependent dissolution rate,"[1]; pH 6.8, 30 min",0.861 mg/mL
same,Time-dependent dissolution rate,"[1]; pH 6.8, 40 min",1.059 mg/mL
same,Time-dependent dissolution rate,"[1]; pH 6.8, 50 min",1.503 mg/mL
same,Time-dependent dissolution rate,"[1]; pH 6.8, 60 min",2.210 mg/mL
same,Time-dependent dissolution rate,"[1]; pH 6.8, 80 min",2.723 mg/mL
same,Time-dependent dissolution rate,"[1]; pH 6.8, 100 min",3.138 mg/mL
same,Time-dependent dissolution rate,"[1]; pH 6.8, 120 min",3.370 mg/mL
same,cytotoxicity (MTT cell viability),CT-26 cancer cell lines,negligible cytotoxicity
same,cytotoxicity (MTT cell viability),HEK-293 cell lines,negligible cytotoxicity
"O=c1c(-c2ccc(O)cc2)coc2c([C@@H]3O[C@H](CO)[C@@H](O)[C@H](O)[C@H]3O)c(O)ccc12 [PUE, Puerarin]",solubility at 24 h,"[2]; aqueous buffer, phosphate buffer at pH 6.8, 37 °C",2490 µg/mL
same,solubility at 24 h,"[2]; deionized water, Distilled Water (pH 7.0), 37 °C",2530 µg/mL
same,solubility at 24 h,"[2]; gastrointestinal tract medium pH 1.2, simulated gastric fluid, gastrointestinal tract at pH 1.2, 37 °C",1510 µg/mL
same,Time-dependent dissolution rate,"[1]; Water, 5 min",0.062 mg/mL
same,Time-dependent dissolution rate,"[1]; Water, 10 min",0.109 mg/mL
same,Time-dependent dissolution rate,"[1]; Water, 15 min",0.190 mg/mL
same,Time-dependent dissolution rate,"[1]; Water, 20 min",0.250 mg/mL
same,Time-dependent dissolution rate,"[1]; Water, 25 min",0.294 mg/mL
same,Time-dependent dissolution rate,"[1]; Water, 30 min",0.506 mg/mL
same,Time-dependent dissolution rate,"[1]; Water, 40 min",0.611 mg/mL
same,Time-dependent dissolution rate,"[1]; Water, 50 min",0.692 mg/mL
same,Time-dependent dissolution rate,"[1]; Water, 60 min",0.821 mg/mL
same,Time-dependent dissolution rate,"[1]; Water, 80 min",0.896 mg/mL
same,Time-dependent dissolution rate,"[1]; Water, 100 min",0.935 mg/mL
same,Time-dependent dissolution rate,"[1]; Water, 120 min",1.031 mg/mL
same,Time-dependent dissolution rate,"[1]; pH 1.2, 5 min",0.008 mg/mL
same,Time-dependent dissolution rate,"[1]; pH 1.2, 10 min",0.019 mg/mL
same,Time-dependent dissolution rate,"[1]; pH 1.2, 15 min",0.023 mg/mL
same,Time-dependent dissolution rate,"[1]; pH 1.2, 20 min",0.030 mg/mL
same,Time-dependent dissolution rate,"[1]; pH 1.2, 25 min",0.035 mg/mL
same,Time-dependent dissolution rate,"[1]; pH 1.2, 30 min",0.043 mg/mL
same,Time-dependent dissolution rate,"[1]; pH 1.2, 40 min",0.163 mg/mL
same,Time-dependent dissolution rate,"[1]; pH 1.2, 50 min",0.354 mg/mL
same,Time-dependent dissolution rate,"[1]; pH 1.2, 60 min",0.394 mg/mL
same,Time-dependent dissolution rate,"[1]; pH 1.2, 80 min",0.435 mg/mL
same,Time-dependent dissolution rate,"[1]; pH 1.2, 100 min",0.568 mg/mL
same,Time-dependent dissolution rate,"[1]; pH 1.2, 120 min",0.685 mg/mL
same,Time-dependent dissolution rate,"[1]; pH 6.8, 5 min",0.078 mg/mL
same,Time-dependent dissolution rate,"[1]; pH 6.8, 10 min",0.110 mg/mL
same,Time-dependent dissolution rate,"[1]; pH 6.8, 15 min",0.168 mg/mL
same,Time-dependent dissolution rate,"[1]; pH 6.8, 20 min",0.244 mg/mL
same,Time-dependent dissolution rate,"[1]; pH 6.8, 25 min",0.274 mg/mL
same,Time-dependent dissolution rate,"[1]; pH 6.8, 30 min",0.347 mg/mL
same,Time-dependent dissolution rate,"[1]; pH 6.8, 40 min",0.415 mg/mL
same,Time-dependent dissolution rate,"[1]; pH 6.8, 50 min",0.444 mg/mL
same,Time-dependent dissolution rate,"[1]; pH 6.8, 60 min",0.504 mg/mL
same,Time-dependent dissolution rate,"[1]; pH 6.8, 80 min",0.560 mg/mL
same,Time-dependent dissolution rate,"[1]; pH 6.8, 100 min",0.641 mg/mL
same,Time-dependent dissolution rate,"[1]; pH 6.8, 120 min",0.785 mg/mL
same,cytotoxicity (MTT cell viability),CT-26 cancer cell lines,negligible cytotoxicity
same,cytotoxicity (MTT cell viability),HEK-293 cell lines,negligible cytotoxicity
same,elimination half-life,[3],short
same,oral bioavailability,[3],about 7%
